Test results published in ChEMBL document CHEMBL4396866, “Discovery and Structure-Based Optimization of Next-Generation Reversible Methionine Aminopeptidase-2 (MetAP-2) Inhibitors” (J Med Chem, 2019).
≈ marks a conversion by molar mass, not a printed value.

Legend:
[1] = Solubility of the compound in FeSSIF; format: physicochemical
[2] = Volume of distribution at steady state in mouse at 0.2 mg/kg, iv; format: ADME, organism-based; details: in vivo, read-out: Vdss
[3] = Oral bioavailability in mouse at 50 mg/kg; format: ADME, organism-based; details: in vivo
[4] = Stability in human liver microsomes assessed per mg protein; format: ADME, Microsome
[5] = Solubility of the compound in FaSSIF; format: physicochemical
[6] = Lipophilicity, log D of the compound at pH 7.4; format: physicochemical; details: buffer
[7] = Stability in mouse liver microsomes assessed per mg protein; format: ADME, Microsome
U-87 MG = assay: Antitumor activity against human U87MG cells xenografted in po dosed CD-1 nude mouse assessed as tumor growth inhibition administered once daily for 12 days; format: functional, organism-based; details: U-87MG ATCC
[8] = Toxicity in CD-1 nude mouse xenografted with human U87MG cells assessed as body weight loss at 5 to 20 mg/kg, po administered once daily for 12 days measured during compound dosing; format: organism-based; details: in vivo, 288 h
[9] = Clearance in mouse at 0.2 mg/kg, iv; format: ADME, organism-based; details: in vivo
[10] = Oral bioavailability in mouse at 0.5 mg/kg; format: ADME, organism-based; details: in vivo
[11] = Toxicity in CD-1 nude mouse xenografted with human U87MG cells at 5 to 20 mg/kg, po administered once daily for 12 days measured during compound dosing; format: organism-based; details: in vivo, 288 h
[12] = Passive permeability across apical to basal side in human Caco2 cells; format: ADME, cell-based; details: Caco-2, read-out: permeability
[13] = Half life in mouse at 0.2 mg/kg, iv; format: ADME, organism-based; details: in vivo
[14] = Dissociation constant, pKa of compound; format: physicochemical
[15] = Drug metabolism in DMSO assessed as oxidation by measuring rac-3-Hydroxy-2-oxo-1-phenylpyrrolidine-3-carboxylic Acid (2-Thiophen-2-ylethyl)amide formation measured after 2 years
[16] = Drug metabolism in DMSO assessed as oxidation by measuring rac-3-Hydroxy-2-oxo-1-phenylpyrrolidine-3-carboxylic Acid (2-Thiophen-2-ylethyl)amide formation incubated at high temperature under stirring condition for 2 days

Row | solubility [1] [µg/mL] | Vd [2] [L/kg] | bioavailability [3] [%] | Stability [4] [µL/min] | solubility [5] [µg/mL] | logD [6] | Stability [7] [µL/min] | clearance [9] [mL/min/kg] | bioavailability [10] [%] | Papp A→B [12] [×10⁻⁶ cm/s] | half-life [13] [h] | pKa [14] | Compound | TGI (U-87 MG) | Activity [8] | Activity [11] | Drug metabolism [15] | Drug metabolism [16]
1 | 334 (≈ 773 µM) | 0.78 | 100 | < 10 | 158 (≈ 366 µM) | 2 | < 10 | 3 | 35 | 16 | 3 | 11 | O=C1CCc2cc(N3CC[C@](O)(C(=O)NCc4cc(F)cc(Cl)c4)C3=O)ccc2N1 | Dose-dependent effect | Non-Toxic | Non-Toxic |  | 
2 |  |  |  |  |  |  |  |  |  |  |  |  | O=C(NCCc1cccs1)C1CCN(c2ccccc2)C1=O (configuration not stated) |  |  |  | Metabolite detected | Metabolite not detected
